Assay results as given in paper PMC6435570, “Zafirlukast Is a Dual Modulator of Human Soluble Epoxide Hydrolase and Peroxisome Proliferator-Activated Receptor γ” (Frontiers in Pharmacology, 2019).

Assays:
[1] = molecular target: T1, PPARγ-LBD / CBP-derived peptide (Homo sapiens, UniProt P37231); assay: PPARγ coactivator (CBP) recruitment assay, HT-FRET; assay type: biochemical; details: for Induction of CBP recruitment by the compound itself: absence of rosiglitazone
T1 construct: 12 nM recombinant PPARγ-LBD fused to N-terminal GFP as FRET acceptor
T1 sequence (P37231 238-503 limits assumed): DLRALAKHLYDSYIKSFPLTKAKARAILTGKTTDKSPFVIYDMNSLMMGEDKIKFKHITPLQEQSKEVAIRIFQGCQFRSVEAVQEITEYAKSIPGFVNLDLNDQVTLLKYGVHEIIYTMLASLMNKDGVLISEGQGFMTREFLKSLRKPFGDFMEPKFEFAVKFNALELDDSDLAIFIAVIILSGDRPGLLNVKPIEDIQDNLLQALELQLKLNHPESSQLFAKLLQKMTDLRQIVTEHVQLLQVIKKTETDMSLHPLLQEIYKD
Excerpt: Recruitment of coactivator-derived peptides to the PPARγ-LBD was studied by homogeneous time-resolved fluorescence resonance energy transfer (HT-FRET). Terbium cryptate as streptavidin conjugate (Cisbio assays, France) was used as FRET donor. Peptides derived from the coactivator cyclic AMP response element-binding protein (CREB)-binding protein (CBP) [biotin-[…]] encompassing the coactivator consensus motif LxxLL and N-terminal biotin for stable coupling to streptavidin were purchased from Eurogentec GmbH (Cologne, Germany). Solutions containing 12 nM recombinant PPARγ-LBD fused to N-terminal GFP as FRET acceptor and 12 nM FRET donor complex with the CBP-derived peptide as well as 1% DMSO with test compound at varying concentrations or DMSO alone were prepared in HEPES buffer [25 mM HEPES pH 7.5 adjusted with KOH, 150 mM KF, 5% (w/v) glycerol, 0.1% (w/v) CHAPS, 5 mM DTT]. After 2 h incubation at RT, the fluorescence intensities (FI) at 520 nm (acceptor) and 620 nm (donor reference) after excitation at 340 nm were recorded on a Tecan Infinite F200 (Tecan Group Ltd., Männedorf, Switzerland). FI520nm was divided by FI620nm and multiplied with 10,000 giving a dimensionless HTRF signal. Recruitment of coactivator-derived peptides to the PPARγ-LBD was validated with increasing concentrations of rosiglitazone. Recruitment of CBP was referenced to recruitment in response to 1 μM rosiglitazone (∼EC80) and reported as relative coactivator recruitment.
We induced this post-translational modification by short-term treatment of the differentiated cells with the cytokine TNFα, generating a pro-inflammatory milieu. […] For this, we used an assay system in which the recruitment of the fluorescence-tagged PPARγ coactivator CBP to the PPARγ-LBD was assessed by time-resolved FRET technique in presence and absence of rosiglitazone.

[2] = test system: PPARγ target genes (LPL, GLUT-4, FABP-4, adiponectin) in 3T3-L1 adipocytes; assay: PPARγ target gene mRNA expression in differentiated 3T3-L1 adipocytes (qRT-PCR); assay type: cell-based, murine; details: after 14 days; for mRNA expression of PPARγ target genes (LPL, GLUT-4, FABP-4, adiponectin): normalized to cells with activation cocktail only
Procedure: 3T3-L1 cells were differentiated into adipocytes for 14 days according to the protocol of [Zebisch et al. (2012)]. For this, cells were seeded in 6-well plates ([…]) and differentiation was induced after 48 h by addition of a differentiation cocktail containing 1 μg/mL insulin, 0.25 μM dexamethasone and 0.5 mM isobutylmethylxanthine (IBMX) in DMEM supplemented with 10% FCS and 1% PS. […] After 2 days, medium was replaced by DMEM supplemented with 10% FCS, 1% PS and 1 μg/mL insulin for 2 more days. Afterwards, cells were kept for lipid droplet accumulation in DMEM containing 10% FCS and 1% PS until day 15. Media were replaced every other day.
3T3-L1 cells were lysed using TRIzol® reagent (Ambion Life Technologies, Carlsbad, CA, United States). Subsequently, mRNA was isolated following the manufacturers protocol. DNA contaminations were digested using DNAse (DNase I, RNase-free Kit; Thermo Scientific, Waltham, MA, United States) and mRNA concentrations were determined using a NanoDrop^TM2000 spectrophotometer (Thermo Scientific, Waltham, MA, United States). Afterwards, reverse transcription was performed using the High Capacity RNA-to-cDNA Kit (Applied Biosystems, Foster City, CA, United States) following the manufacturers protocol. […] Relative mRNA expression was determined by the 2^-ΔΔCt method normalized to murine non-POU domain-containing octamer binding protein (Nono). All samples were measured in triplicates and experiments were repeated independently at least three times.
To gain further insight in PPARγ activation after compound treatment, mature 3T3-L1 adipocytes were harvested after 14 days and mRNA was isolated, reverse transcribed and subjected to quantitative RT-PCR. mRNA expression of the PPARγ target genes lipoprotein lipase (LPL), the glucose transporter 4 (GLUT-4), the fatty acid binding protein 4 (FABP-4) and adiponectin was monitored by quantitative PCR (Figure 3A–D and Supplementary Figure S1). […]

[3] = molecular target: T2, human PPARδ ligand binding domain (Homo sapiens, UniProt Q03181); assay: PPAR reporter gene assay (Gal4 hybrid, PPARδ); assay type: cell-based; details: HEK-293T, reference L165,041 1 μM, tested up to 10 μM
T2 construct: expressed in transfected cells; host or cells: HEK-293T
T2 sequence (Q03181 211-439 limits assumed): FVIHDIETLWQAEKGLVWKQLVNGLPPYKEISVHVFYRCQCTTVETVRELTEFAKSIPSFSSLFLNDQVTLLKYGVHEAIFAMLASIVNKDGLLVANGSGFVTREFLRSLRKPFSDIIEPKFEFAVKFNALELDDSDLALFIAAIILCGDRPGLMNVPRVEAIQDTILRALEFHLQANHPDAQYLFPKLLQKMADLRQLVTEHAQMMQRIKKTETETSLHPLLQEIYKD
Procedure: HEK-293T cells were seeded in 96-well plates (2.5 × 10^4 cells/well) and were allowed to adhere overnight. Before transfection, medium was changed to Opti-MEM without supplements. Transient plasmid transfection was carried out using Lipofectamine LTX reagent (Invitrogen, Carlsbad, CA, United States) according to the manufacturer’s protocol with pFR-Luc (Stratagene, La Jolla, CA, United States), pRL-SV40 (Promega, Fitchburg, MA, United States) and pFA-CMV-PPAR-LBD ([Rau et al., 2006]). 5 h after transfection, medium was changed to Opti-MEM supplemented with penicillin (100 U/mL) and streptomycin (100 μg/mL), now additionally containing 0.1% DMSO and the respective test compound or 0.1% DMSO alone as untreated control. Each concentration was tested in triplicates and each experiment was repeated independently at least four times. Following overnight (12–16 h) incubation with the test compounds, cells were assayed for luciferase activity using the Dual-Glo^TM Luciferase Assay System (Promega, Fitchburg, MA, United States) according to the manufacturer’s protocol. Luminescence was measured with an Infinite M200 luminometer (Tecan Group Ltd., Männedorf, Switzerland). Normalization of transfection efficiency and cell growth was done by division of firefly luciferase data by renilla luciferase data and multiplying the value by 1000 resulting in relative light units (RLU). Fold activation was obtained by dividing the mean RLU of a test compound at a respective concentration by the mean RLU of untreated control. Relative activation was obtained by dividing the fold activation of a test compound at a respective concentration by the fold activation of the respective PPARα, γ or δ full agonist GW-7647, pioglitazone or L165,041 at 1 μM. EC50 and standard deviation were calculated with the mean relative activation values of at least four independent experiments by SigmaPlot 10.0 (Systat Software GmbH, Erkrath, Germany) using a four parameter logistic regression. […]

Compound	Induction of CBP recruitment by the compound itself [1]	Antagonism of rosiglitazone induced CBP recruitment ([1]; presence of rosiglitazone (1 μM))	mRNA expression of PPARγ target genes (LPL, GLUT-4, FABP-4, adiponectin) [2]	PPARδ EC50 [3]	IC50 ([1]; rosiglitazone 1 μM, after 2 h, read-out: IC50 for antagonism of rosiglitazone induced CBP recruitment)	Adiponectin mRNA level ([2]; compared to the other target genes)
CC(C)(O)c1ccccc1CC[C@@H](SCC1(CC(=O)O)CC1)c1cccc(/C=C/c2ccc3ccc(Cl)cc3n2)c1 [Montelukast, montelukast]	did not induce CBP recruitment itself in concentrations up to 20 μM	weakly antagonized the rosiglitazone induced CBP recruitment in concentrations above 3 μM	did not influence the expression	i.a. @ 10 μM	–	–
COc1cc(C(=O)NS(=O)(=O)c2ccccc2C)ccc1Cc1cn(C)c2ccc(NC(=O)OC3CCCC3)cc12 [Zafirlukast, zafirlukast]	did not induce CBP recruitment itself	–	dose-dependently induced target gene expression although to a lesser extent compared to rosiglitazone	i.a. @ 10 μM	4.7 µM	elevated adiponectin levels more effectively compared to the other target genes
